# Patent US6855804B2, “Covalently reactive transition state analogs and methods of use thereof” (Board of Regents, The University of Texas System, priority 1998, dated 2005)
# Non-standard residues stand in square brackets, D forms with d. Residues, ends and D or L forms follow the SMILES beside them. *: point of attachment. Sta = CC(C)C[C@H](N)[C@@H](O)CC(=O)O; Isovaleryl = CC(C)CC(=O)*
# How the values were obtained:
# [1] = biological target: trypsin (porcine, type IX) (Sus scrofa, UniProt P00761); test: biochemical; type: biochemical
# Fv YZ17 [2] = type: biochemical, mouse
# Thrombin (human, a) = Thrombin (human, a) (Homo sapiens, UniProt P00734); type: biochemical
# trypsin = trypsin (Sus scrofa, UniProt P00761); type: binding, porcine
# L chain hk14 [3] = type: biochemical
# [4] = test system: VIPase antibody fragments; type: biochemical
# L chain c23.5 [5] = type: biochemical
# L chain hk14 [6] = type: binding
# L chain U16 [7] = type: biochemical, mouse
# Fv mRT3 = type: biochemical
# L chain U16 [8] = type: binding, mouse
# L chain c23.5 [9] = type: binding
# L chain GG63 = L chain GG63 (Homo sapiens, UniProt P01834); test: Inhibition of L chain GG63 catalysed PFR-MCA cleavage
# L chain clone c23.5 = type: binding
# L chain clone SK35 = type: binding
# Fv YZ17 [10] = type: binding, mouse
# trypsin (porcine, type IX), sequence (P00761 9-231): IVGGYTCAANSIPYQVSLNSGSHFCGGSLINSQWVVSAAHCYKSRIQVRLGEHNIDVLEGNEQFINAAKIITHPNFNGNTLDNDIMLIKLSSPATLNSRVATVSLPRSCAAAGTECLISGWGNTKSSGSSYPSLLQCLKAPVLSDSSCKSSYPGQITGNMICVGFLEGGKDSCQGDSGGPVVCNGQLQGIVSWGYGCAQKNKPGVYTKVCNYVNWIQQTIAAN
# trypsin, sequence (P00761 9-231): as above
molecule,measurement,setting,value
"N=C(N)c1ccc(C(NC(=O)CCSSCCC(=O)NCCNC(=O)CCCCC2SCC3NC(=O)NC32)P(=O)(O)Oc2ccccc2)cc1 (stereo not shown) [Compound 3, Monophenyl-N-[2-(biotinamido)ethylamido-3,3′-dithiodipropionyl]amino(4-amidinophenyl)methanephosphonate]",inhibition of trypsin activity after pretreatment and dilution,[1],85%
same,inhibition of trypsin without pretreatment,[1],no inhibition
same,inhibition of trypsin-catalyzed EAR-MCA hydrolysis,[1],9.9-80%
same,irreversibility of trypsin inhibition,[1],irreversible
same,"k3, first-order rate constant for decomposition of Ei-I",[1],~0
same,trypsin activity level following gel filtration,[1],27.6±2.6 FU/h
same,trypsin activity level without removal of phosphonate,[1],33.2±2.6 FU/h
same,trypsin activity of adduct isolated by gel filtration after incubation in buffer,[1],50.2±7.0 FU/h
same,irreversible inhibition of YZ17 activity,Fv YZ17 [2],inhibition of activity despite dilution
same,irreversible inhibition of thrombin activity,"Thrombin (human, a)",inhibition of activity despite dilution
same,covalent labeling of trypsin (adducts after denaturing treatment),trypsin,labeled
phenylphosphonate 4-nitrophenyl [N-(6-biotinylhexanediamin-1-yl)carboxymethyl]tropan-3-ol diester [diester II],inhibition of cleavage of PFR-MCA,L chain hk14 [3],71%
same,irreversibility of peptidase inhibition after removal of free inhibitor by gel filtration,[4],did not restore the catalytic activity
same,inhibition of cleavage of PFR-MCA,L chain c23.5 [5],83%
same,"II labeling of monomer L chain, % of the Fv level",L chain hk14 [6],33%
same,inhibition of cleavage of PFR-MCA,L chain U16 [7],79%
same,inhibition of cleavage of PFR-MCA,Fv mRT3,92%
same,"II labeling of monomer L chain, % of the Fv level",L chain U16 [8],51%
same,"II labeling of monomer L chain, % of the Fv level",L chain c23.5 [9],18%
"N=C(N)c1ccc(C(NC(=O)OCc2ccccc2)P(=O)(O)Oc2ccccc2)cc1 (stereo not shown) [Compound 2, Monophenyl N-(benzyloxycarbonyl)amino(4-amidinophenyl)methanephosphonate]",Ki,[1],5.2 mM
same,kinact/KI,[1]; read-out: k2/Ki,1.5 M⁻¹ s⁻¹
"c1cnc2c(c1)ccc1cccnc12 [Phenanthroline, phenanthroline]","Inhibition, % Phenanthroline",Fv YZ17 [2],0.2%
same,inhibition at 10000 µM,"L chain GG63; read-out: Inhibition, % Phenanthroline",0.6%
"N=C(N)c1ccc(C(NC(=O)CCCCCNC(=O)CCCC[C@@H]2SC[C@@H]3NC(=O)N[C@@H]32)P(=O)(O)Oc2ccccc2)cc1 (stereo partly shown) [Compound 4, Monophenyl N-[6-(biotinamido)hexanoyl]amino(4-amidinophenyl)methanephosphonate]",stable adduct formation with L chain c23.5,L chain clone c23.5,failed to form stable 4-adduct
same,stable adduct formation with L chain SK35,L chain clone SK35,adducts stable to denaturing treatments were observed
same,stable adduct formation with Fv YZ17,Fv YZ17 [10],adducts stable to denaturing treatments were observed
"CC(C)CC(=O)N[C@H](C(=O)N[C@H](C(=O)N[C@@H](CC(C)C)[C@@H](O)CC(=O)N[C@@H](C)C(=O)N[C@@H](CC(C)C)[C@@H](O)CC(=O)O)C(C)C)C(C)C [Pepstatin A, pepstatin A] (Isovaleryl-VV[Sta]A[Sta]-OH)","Inhibition, % Pepstatin A",Fv YZ17 [2],1.2 (2.9) %
same,"Inhibition, % Pepstatin A",L chain GG63,0.2 (1.3) %
"NC(=O)CI [Iodoacetamide, iodoacetamide]","Inhibition, % Iodoacetamide",Fv YZ17 [2],4.4%
same,"Inhibition, % Iodoacetamide",L chain GG63,5.8%
"N=C(N)c1ccc(C(NC(=O)CCSSCCC(=O)NCCNC(=O)CCCCC2SCC3NC(=O)NC32)P(=O)(Oc2ccccc2)Oc2ccccc2)cc1 (stereo not shown) [Compound 5, Diphenyl-N-[2-(biotinamido)ethylamido-3,3′-dithiodipropionyl]amino(4-amidinophenyl)methanephosphonate]",kapp/[I],[1],0.23 M⁻¹ s⁻¹
same,trypsin activity level following gel filtration,[1],5.0±0.1 FU/h
same,trypsin activity level without removal of phosphonate,[1],6.5±0.2 FU/h
same,covalent labeling of trypsin (adducts after denaturing treatment),trypsin,labeled
"N=C(N)c1ccc(C(NC(=O)OCc2ccccc2)P(=O)(Oc2ccccc2)Oc2ccccc2)cc1 (stereo not shown) [Compound 1, Diphenyl N-(benzyloxycarbonyl)amino(4-amidinophenyl)methanephosphonate, reference compound]","k2, first-order rate constant for formation of covalent adduct",[1],2.0 min⁻¹
same,kapp/[I],[1],3703 M⁻¹ s⁻¹
same,ΔG of noncovalent enzyme-inhibitor interactions (ΔG=−RTlnKi),[1],7.3 kcal/mol
